Data set [1] relates to gastric acid secretion. The experiment in a line: Gastric acid secretion inhibition, Shay-rat procedure. The note with it: intraduodenal dose 100 mg./kg. of body weight. Type of data set: in vivo, rats (male, CFE strain). The protocol: Gastric acid secretion inhibition can also be observed in an assay wherein acid secretion is stimulated as in the well-known "Shay-rat" procedure, which is carried out in the following manner.
The rats (male, CFE strain) were starved for 48 hours (water was given ad libitum) to permit evacuation of stomach contents. On the morning of the experiment, under ether anesthesia, the abdominal region was shaved and a midline incision (1-11/2 inch) was made with a scapel. With the help of a closed curved hemostat the duodenum was picked up. […]
The abdominal cavity was exposed by cutting with scissors and the esophagus close to the stomach was clamped off with a hemostat, the stomach was removed by cutting above the hemostat (the esophagus was cut) and between the two sutures. […] The supernatant was collected, volume measured and recorded, 2 drops of a phenolphthalein indicator (1% in 95% ethanol) were added and the solution was tritrated with 0.02N NaOH (or with 0.04N NaOH when large volumes of stomach contents were encountered) to pH 8.4 (because of usual coloring of the stomach contents, phenolphthalein was only used to permit visual indication that the end point was near) and the amount of acid present was calculated. […]

In data set [2] the test system is basal gastric acid secretion. The experiment in a line: Inhibition of total acid output in the acute gastric fistula rat. As to conditions: for ED50: Rattus norvegicus. Type of data set: in vivo, Female Sprague-Dawley rats. The protocol:
The compounds of this invention are also useful as inhibitors of gastric acid secretion and peptic ulcer formation and may be used for the treatment of gastric hyperacidity, gastric erosion, and peptic ulcer. Inhibition of basal gastric acid secretion can be determined by the following procedure.
Female Sprague-Dawley rats weighting 140-160 grams are fasted in individual cages for 18-24 hours. The rats are then lightly anesthetized with ether and their front teeth extracted to avoid destruction of the plastic cannula. A midline incision is then made and the stomach and duodenum exposed. A flanged polyvinyl tube is inserted into the fundic portion of the stomach and secured with a purse string suture line using 4-O Mersilene. The rat is then dosed by injection of the compound into the duodenum (1.0 ml. per 100 gram body weight). After dosing, the abdominal wall and skin are closed using metal wound clips. The rate is replaced in a cage containing a longitudinal slit to allow the polyvinyl tube to hang freely. An 8 ml. plastic collecting tube is attached to the flanged cannula and hangs freely below the cage. The first 30 minute sample is discarded designating this time as zero. The collecting tube is attached again and samples removed at the end of 60 and 120 minutes. These samples are referred to as "A" and "B" in the table. The hourly samples are then transferred to a 15 ml. centrifuge and centrifuged for 5-10 minutes. Total and sediment volume are then recorded with the supernatent volume being used as volume of secretion. A 1 ml. or less aliquot is then removed and placed in a 50 ml. beaker containing 10 ml. of distilled water. This sample is then titrated using 0.01N NaOH to pH 7.0 using a Beckman zeromatic pH meter. Volume, titratable acidity (meg.L) and total acid output (μeg/hour) are recorded. Percent inhibition is determined by comparison with the appropriate control. Groups of three rats were used for preliminary testing, and groups of six rats were used for dose-response evaluations. All compounds are administered in a vehicle consisting of 0.5% methocel, 0.4% tween 80, and saline at a constant volume of 1 ml./100 gram rat. Samples are dispersed by sonification. Percent inhibition is calculated on basis of concurrent vehicle control.
In Table B which follows is given the effect on total acid output after 120 minutes of a 10 mg./kg. dose of representative ketals of this invention. For comparison the result obtained with the corresponding 9-oxo derivative, l 9-oxo-15(S)-hydroxyprostanoic acid is included.
Dose response evaluation in the acute gastric fistual rat assay further illustrates the pronounced advantage of the novel ketals of this invention as gastric acid secretion inhibitors relative to the corresponding 9-oxo derivative.

For data set [3], the system named is bronchospasms elicited by 5-hydroxytryptamine. The experiment in a line: Bronchodilator activity (intraduodenal route) against 5-hydroxytryptamine. Type of data set: in vivo, guinea pigs. The arrangement: key: 0: no activity; +: minimal activity; ++++: maximum activity. The protocol:
(§1) The compounds of this invention are useful as bronchodilators for the treatment of asthma and chronic bronchitis. Bronchodilator activity is determined in guinea pigs against bronchospasms elicited by intravenous injections of 5-hydroxytryptamine, histamine or acetylcholine by the Konzett procedure. [See J. Lulling, P. Lievens, F. El Sayed and J. Prignot, Arzneimittel-Forschung, 18, 995 (1968).]
(§2) In Table A' which follows bronchodilator activity for representative compounds of this invention against one or more of three spasmogenic agents is reported. In this assay candidate compounds are suspended in 10% gum arabic solution and the suspension is administered by the intraduodenal route. The activity of the compound at any one dose is then investigated throughout the following hour (see above-cited reference, J. Lulling et al.). Potency is then reported as O, +, ++, +++, or ++++, wherein 0 represents no activity, + minimal activity and ++++ maximum activity.

The test system of data set [4] is bronchospasms elicited by histamine. Put plainly: Bronchodilator activity (intraduodenal route) against histamine. Type of data set: in vivo, guinea pigs. The arrangement: key: 0: no activity; +: minimal activity; ++++: maximum activity. As to conditions: intraduodenal dose 10 mg./kg. The protocol: as §1, §2
The test system of data set [5] is bronchoconstriction induced by administration of pilocarpine. The experiment in a line: Bronchodilator activity by aerosol in dogs. Type of data set: in vivo. The note with it: aerosol concentration 0.032%. The protocol:
(§3) The novel ketals of this invention also show bronchodilator activity when administered by aerosol to dogs wherein bronchoconstriction was induced by administration of pilocarpine. […] This is very important since coughing is one of the damaging side effects reported in the literature when prostaglandin aerosols are administered to human subjects. [See Y. Kawakami et al., European Journal Clinical Pharmacology, 6, 127 (1973); M. F. Cuthbert, Brit. Med. Journ. 723 (Dec. 20, 1969); H. Herxheimer and I. Roetscher, European Journal Clinical Pharmacology, 3, 123 (1971).]

Data set [6] deals with cough. Put plainly: Cough induction by aerosol in human. Type of data set: in vivo. Here is the method: as §3
Data set [7] has as its system bronchospasms elicited by intravenous injections of acetylcholine. The experiment in a line: Bronchodilator activity (Konzett assay, intravenous) against acetylcholine. As to conditions: Cavia porcellus, guinea pig, spasmogen acetylcholine, read-out: Bronchodilator Activity (Konzett Assays) ED50, acetylcholine. Type of data set: in vivo, guinea pigs. The protocol:
as §1
(§4) In Table A which follows bronchodilator activity for representative compounds of this invention against one or more of three spasmogenic agents is expressed as an ED50 determined from the results obtained with three logarithmic cumulative intravenous doses.

In data set [8] the test system is bronchospasms elicited by intravenous injections of 5-hydroxytryptamine. The experiment in a line: Bronchodilator activity (Konzett assay, intravenous) against 5-hydroxytryptamine. Type of data set: in vivo, guinea pigs. As to conditions: Cavia porcellus, guinea pig, spasmogen 5-hydroxytryptamine, read-out: Bronchodilator Activity (Konzett Assays) ED50, 5-hydroxytryptamine. The protocol: as §1, §4

Setting [9] is: 2 h, 10 mg./kg., intraduodenal route, rat, read-out: %-Inhibition of Total Acid Output After 120 Minutes.
[10] abbreviates: Table C, intraduodenal route, 1 hr. collection, read-out: ED50, 1 hr. collection (A).
Setting [11] is: Table C, intraduodenal route, 2 hr. collection, read-out: ED50, 2 hr. collection (B).

Like-named read-outs stand apart in the source and are kept apart here. A value given as a limit tells only on which side of the number the result lay.

Turning to `CCCCCC(O)CCC1CCC2(OCCO2)C1CCCCCCC(=O)O` (racemic) [9,9-(ethylenedioxy)-15-hydroxy-prostanoic acid], in data set [1], the “Percent Inhibition (gastric acid secretion, Shay rat)” value worked out at 56%.

In the case of `CCCCC[C@H](O)CC[C@H]1CCC2(OCC(C)(C)CO2)[C@@H]1CCCCCCC(=O)O` [9,9-(2,2-dimethylpropylenedioxy)-15(S)-hydroxy-prostanoic acid], the inhibition in vivo at 10 mg/kg in data set [2] (setting [9]) was 32%. In addition, the “Bronchodilator potency, Spasmogenic Agent 5-Hydroxytryptamine” value in data set [3] (intraduodenal dose 10 mg./kg.) is on record as “+”. Also, the “Bronchodilator potency, Spasmogenic Agent Histamine” value in data set [4] is listed as “+”.

`CCCCC[C@H](O)CC[C@H]1CCC(=O)[C@@H]1CCCCCCC(=O)O` [l 9-oxo-15(S)-hydroxyprostanoic acid, 1-15(S)-hydroxy-9-oxo-prostanoic acid, reference compound]: in data set [5], the “bronchodilator activity by aerosol” value was “very weak”. The inhibition in vivo at 12.5 mg/kg in data set [2] (2 h, 12.5 mg./kg. dose, intraduodenal route, rat, read-out: %-Inhibition of Total Acid Output After 120 Minutes) was 27%. For the same compound, the ED50 (in general, the dose that gives a 50% effect, or the effect in half of the subjects) is 18 mg/kg in data set [2] (setting [10]) and > 25 mg/kg in data set [2] (setting [11]). For the same compound, in data set [2] (total acid output, Table B), the “potency relative to the ketals” value is “significantly less potent than the ketals”. In addition, the “induction of cough by aerosol” value in data set [6] is “ketone aerosol does”.

Take `CCCCC[C@@H](CC[C@H]1CCC2(OC(C)C(C)O2)[C@@H]1CCCCCCC(=O)OC)OC(C)=O` (stereo partly drawn) [l methyl 9,9-(1,2-dimethylethylenedioxy)-15(S)-acetoxyprostanoate]: the inhibition in vivo at 10 mg/kg in data set [2] (setting [9]) was found to be 74%. Further, the ED50 in data set [2] (setting [10]) and in data set [2] (setting [11]) was 7 mg/kg in each case.

On to `CCCCC[C@@H](CC[C@H]1CCC2(OCCCO2)[C@@H]1CCCCCCC(=O)OC)OC(C)=O` [l methyl 9,9-(1,3-propylenedioxy)-15(S)-acetoxy-prostanoate], for which the inhibition in vivo at 10 mg/kg in data set [2] (setting [9]) turned out to be 60%. Further, the 50% effective dose (ED50) in data set [2] (setting [10]) and in data set [2] (setting [11]) was 6 mg/kg each time. For the same compound, the “Bronchodilator potency, Spasmogenic Agent Histamine” value in data set [4] is given as “+”.

In the case of `CCCCC[C@@H](CC[C@H]1CCC2(OCC(C)O2)[C@@H]1CCCCCCC(=O)OC)OC(C)=O` (stereo partly drawn) [l methyl 9,9-(1-methylethylenedioxy)-15(S)-acetoxyprostanoate], the “Bronchodilator potency, Spasmogenic Agent 5-Hydroxytryptamine” value in data set [3] (intraduodenal dose 10 mg./kg.) is listed as “+”.

Turning to `CCCCC[C@@H](CC[C@H]1CCC2(OCCO2)[C@@H]1CCCCCCC(=O)OC)OC(C)=O` [l methyl 9,9-ethylenedioxy-15(S)-acetoxy-prostanoate], the inhibition in vivo at 10 mg/kg in data set [2] (setting [9]) turned out to be 100%. The ED50 in data set [2] (2 h, Table B, intraduodenal route, after 120 minutes, read-out: ED50 (inhibition of total acid output)) turned out to be 3 mg/kg; in data set [2] (setting [11]) it was 3 mg/kg.

As for `CCCCC[C@@H](CC[C@H]1CCC2(SCCS2)[C@@H]1CCCCCCC(=O)OC)OC(C)=O` [l methyl 9,9-ethylenedithia-15(S)-acetoxy-prostanoate], in data set [2] (setting [9]), the inhibition in vivo at 10 mg/kg stood at 32%.

For the compound `CCCCC[C@@H](CC[C@H]1CCC2(OCC(CCl)O2)[C@@H]1CCCCCCC(=O)OC)OC(C)=O` (stereo partly drawn) [l methyl-9,9-(1-chloromethylethylenedioxy)-15(S)-acetoxy-prostanoate], the inhibition in vivo at 10 mg/kg in data set [2] (setting [9]) was 26%. Also, in data set [4], the “Bronchodilator potency, Spasmogenic Agent Histamine” value is “+”.

Take `CCCCC[C@H](O)CC[C@H]1CCC2(OC(C)C(C)O2)[C@@H]1CCCCCCC(=O)O` (stereo partly drawn) [l-9,9-(1,2-dimethylethylenedioxy)-15(S)-hydroxy-prostanoic acid]: in data set [2] (setting [9]), the inhibition in vivo at 10 mg/kg is 57%. In addition, the median effective dose (ED50) in data set [2] (setting [10]) is < 8 mg/kg; in data set [2] (setting [11]), 8 mg/kg. The “Bronchodilator potency, Spasmogenic Agent Histamine” value in data set [4] is “+”.

As for `CCCCC[C@H](O)CC[C@H]1CCC2(OCC(CCl)O2)[C@@H]1CCCCCCC(=O)O` (stereo partly drawn) [l-9,9-(1-chloromethylethylenedioxy)-15(S)-hydroxy-prostanoic acid], in data set [2] (setting [9]), the inhibition in vivo at 10 mg/kg was 99%. The median effective dose (ED50) in data set [2] (setting [10]) and in data set [2] (setting [11]) was 6 mg/kg throughout. In data set [3] (intraduodenal dose 3.2 mg./kg.), the “Bronchodilator potency, Spasmogenic Agent 5-Hydroxytryptamine” value was “++++”.

For `CCCCC[C@H](O)CC[C@H]1CCC2(OCCS2)[C@@H]1CCCCCCC(=O)O` (stereo partly drawn) [l-9,9-(ethyleneoxythia)-15(S)-hydroxy-prostanoic acid], the inhibition in vivo at 10 mg/kg in data set [2] (setting [9]) was 39%. In addition, the “Bronchodilator potency, Spasmogenic Agent Histamine” value in data set [4] is reported as “+”.

As to `CCCCC[C@H](O)CC[C@H]1CCC2(OCC(C)O2)[C@@H]1CCCCCCC(=O)O` (stereo partly drawn) [l-15(S)-hydroxy-9,9-(1-methylethylenedioxy)-prostanoic acid], the 50% effective dose (ED50) in data set [7] turned out to be 0.000644 mg/kg; in data set [8] it was 0.000104 mg/kg. Besides, the inhibition in vivo at 10 mg/kg in data set [2] (setting [9]) was determined as 61%.

On to “l methyl 9,9-(2,2-dimethyl-1,3-propylenedioxy)-15(S)-acetoxy-prostenoate”, for which the “%-Inhibition of Total Acid Output After 120 Minutes” value in data set [2] (10 mg./kg., intraduodenal route, rat) was determined as 27%.

The values are drawn from US4017534A, “16-Fluoro-11-deoxy-13-dihydro-prostaglandin” (American Cyanamid Company, priority 1975, dated 1977).
